According to patent US11780893B2, “Kv1.3 blockers” (Zealand Pharma A/S, priority 2019, dated 2023):
Like-named read-outs stand apart in the source and are kept apart here. Bridge positions count the residues as written; N and C are the ends. Square brackets hold non-standard residues; d marks the D form. Peptide text beside a SMILES is read from it. Aad = N[C@@H](CCCC(=O)O)C(=O)O; hLys = NCCCCC[C@H](N)C(=O)O; Nle = CCCC[C@H](N)C(=O)O; Abu = CC[C@H](N)C(=O)O

Legend:
Rat whole blood = Rat whole blood (Rattus norvegicus, UniProt P15384)
Rat whole blood, sequence (P15384 whole entry): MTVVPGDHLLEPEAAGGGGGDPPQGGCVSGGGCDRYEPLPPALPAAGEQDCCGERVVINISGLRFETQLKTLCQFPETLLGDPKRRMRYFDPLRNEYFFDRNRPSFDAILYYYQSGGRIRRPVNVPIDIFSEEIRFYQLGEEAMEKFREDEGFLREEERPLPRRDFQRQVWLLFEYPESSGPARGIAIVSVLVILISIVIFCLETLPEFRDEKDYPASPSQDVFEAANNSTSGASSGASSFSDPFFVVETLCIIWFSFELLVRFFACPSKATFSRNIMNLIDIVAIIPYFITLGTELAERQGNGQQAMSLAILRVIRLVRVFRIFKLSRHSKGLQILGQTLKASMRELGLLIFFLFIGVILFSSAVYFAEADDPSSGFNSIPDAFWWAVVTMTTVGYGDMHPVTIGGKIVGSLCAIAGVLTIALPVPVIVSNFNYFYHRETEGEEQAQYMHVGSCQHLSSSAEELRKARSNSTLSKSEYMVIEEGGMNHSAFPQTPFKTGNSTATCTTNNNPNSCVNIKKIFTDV

[1] = molecular target: T1, human Kv1.3 voltage-gated K+ channel (Homo sapiens, UniProt P22001); experiment: cell-based; conditions: inhibition of thallium flux, CHO-DUKX cells with human Kv1.3; read-out: IC50
T1 construct: host or cells: CHO-DUKX
T1 sequence (P22001 whole entry): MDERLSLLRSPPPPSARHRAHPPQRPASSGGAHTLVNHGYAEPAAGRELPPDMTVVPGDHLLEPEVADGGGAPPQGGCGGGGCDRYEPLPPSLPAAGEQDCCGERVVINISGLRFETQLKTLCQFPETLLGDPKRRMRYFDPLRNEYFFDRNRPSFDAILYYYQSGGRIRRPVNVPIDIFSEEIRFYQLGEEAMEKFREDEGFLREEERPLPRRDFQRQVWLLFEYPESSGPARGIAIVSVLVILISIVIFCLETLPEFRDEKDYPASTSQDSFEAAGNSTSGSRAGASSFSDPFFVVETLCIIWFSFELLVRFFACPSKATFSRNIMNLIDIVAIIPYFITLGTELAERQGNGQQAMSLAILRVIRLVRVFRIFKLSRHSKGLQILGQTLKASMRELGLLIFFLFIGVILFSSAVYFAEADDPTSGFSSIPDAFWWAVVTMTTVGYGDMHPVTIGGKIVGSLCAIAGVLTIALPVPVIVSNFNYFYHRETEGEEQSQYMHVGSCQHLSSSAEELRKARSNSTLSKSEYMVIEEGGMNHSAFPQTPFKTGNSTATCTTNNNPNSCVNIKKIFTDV

[2] = inhibition of IL-17A release, thapsigargin, 24 Hr, at least 2 replicates

| SMILES | IC50 (Rat whole blood) [nM] | IC50 (Rat whole blood; [2]) [nM] | IC50 [1] [nM] |
| --- | --- | --- | --- |
| CCCC[C@@H]1NC(=O)[C@@H]2CSSC[C@H](NC(=O)[C@H](CCCNC(=N)N)NC(=O)[C@H](CCCC)NC(=O)[C@H](CC(=O)O)NC(=O)[C@H](CCCC)NC(=O)[C@@H](N)CC(N)=O)C(=O)N[C@@H](CO)C(=O)N[C@@H](C)C(=O)N[C@@H](CO)C(=O)N[C@@H](C(C)C)C(=O)N[C@@H](CCC(=O)O)C(=O)N[C@H]3CSSC[C@H](NC(=O)[C@H](CCCCN)NC(=O)[C@H](CCCCN)NC(=O)[C@H](CC(N)=O)NC1=O)C(=O)N[C@@H](CCCCN)C(=O)N[C@H](C(=O)N[C@@H](Cc1ccc(O)cc1)C(=O)N1CCC[C@H]1C(=O)N[C@@H](CCCNC(=N)N)C(N)=O)CSSC[C@H](NC(=O)[C@H](CCCCN)NC(=O)[C@H](CCC(N)=O)NC(=O)[C@H](CCC(=O)O)NC3=O)C(=O)N[C@@H](CC(C)C)C(=O)N[C@@H](CCCCN)C(=O)N[C@@H](C)C(=O)N[C@@H]([C@@H](C)CC)C(=O)NCC(=O)N[C@@H](CO)C(=O)N[C@@H]([C@@H](C)CC)C(=O)N[C@@H](Cc1ccccc1)C(=O)NCC(=O)N[C@@H](CCCCN)C(=O)N2 [Compound 43] (H-N[Nle]D[Nle]RCSASVECEQKCLKAIGSIFGKC[Nle]NKKCKCYPR-NH2; disulfide 6-27, 12-32, 16-34) | ≤ 1 | 0.99 | 0.5 |
| CCCC[C@@H]1NC(=O)[C@@H]2CSSC[C@H](NC(=O)[C@H](CCCNC(=N)N)NC(=O)[C@H](CCCC)NC(=O)[C@H](CC(=O)O)NC(=O)[C@H](CCCC)NC(=O)[C@@H](N)CC(N)=O)C(=O)N[C@@H](CO)C(=O)N[C@@H](C)C(=O)N[C@@H](CO)C(=O)N[C@@H](C(C)C)C(=O)N[C@@H](CCC(=O)O)C(=O)N[C@H]3CSSC[C@H](NC(=O)[C@H](CCCCN)NC(=O)[C@H](CCCCN)NC(=O)[C@H](CC(N)=O)NC1=O)C(=O)N[C@@H](CCCCN)C(=O)N[C@H](C(=O)N[C@@H](Cc1ccc(O)cc1)C(=O)N1CCC[C@H]1C(=O)N[C@@H](CCCNC(=N)N)C(N)=O)CSSC[C@H](NC(=O)[C@H](CCCCN)NC(=O)[C@H](CCC(N)=O)NC(=O)[C@H](CCC(N)=O)NC3=O)C(=O)N[C@@H](CC(C)C)C(=O)N[C@@H](CCCCN)C(=O)N[C@@H](C)C(=O)N[C@@H]([C@@H](C)CC)C(=O)NCC(=O)N[C@@H](CO)C(=O)N[C@@H]([C@@H](C)CC)C(=O)N[C@@H](Cc1ccccc1)C(=O)NCC(=O)N[C@@H](CCCCN)C(=O)N2 [Compound 44] (H-N[Nle]D[Nle]RCSASVECQQKCLKAIGSIFGKC[Nle]NKKCKCYPR-NH2; disulfide 6-27, 12-32, 16-34) |  | 1.1 | 0.13 |
| CCCC[C@H](NC(=O)[C@H](CC(=O)O)NC(=O)[C@H](CCCC)NC(=O)[C@@H](N)CO)C(=O)N[C@@H](CCCNC(=N)N)C(=O)N[C@H]1CSSC[C@@H]2NC(=O)[C@H](CCCCN)NC(=O)CNC(=O)[C@H](Cc3ccccc3)NC(=O)[C@H]([C@@H](C)CC)NC(=O)[C@H](CO)NC(=O)CNC(=O)[C@H]([C@@H](C)CC)NC(=O)[C@H](C)NC(=O)[C@H](CCCCN)NC(=O)[C@H](CC(C)C)NC(=O)[C@@H]3CSSC[C@@H](C(=O)N[C@@H](Cc4ccc(O)cc4)C(=O)N4CCC[C@H]4C(=O)N[C@@H](CCCNC(=N)N)C(N)=O)NC(=O)[C@H](CCCCN)NC(=O)[C@H](CSSC[C@H](NC(=O)[C@H](CCC(=O)O)NC(=O)[C@H](C(C)C)NC(=O)[C@H](CC)NC(=O)[C@H](C)NC(=O)[C@H](CO)NC1=O)C(=O)N[C@@H](CCCCN)C(=O)N[C@@H](CCC(N)=O)C(=O)N[C@@H](CCCCN)C(=O)N3)NC(=O)[C@H](CCCCN)NC(=O)[C@H](CCCCN)NC(=O)[C@H](CC(N)=O)NC(=O)[C@H](CCSC)NC2=O [Compound 68] (H-S[Nle]D[Nle]RCSA[Abu]VECKQKCLKAIGSIFGKCMNKKCKCYPR-NH2; disulfide 6-27, 12-32, 16-34) | ≤ 1 | 0.93 | 0.2 |
| CCCC[C@H](NC(=O)[C@H](CC(=O)O)NC(=O)[C@H](CCCC)NC(=O)[C@@H](N)CO)C(=O)N[C@@H](CCCNC(=N)N)C(=O)N[C@H]1CSSC[C@@H]2NC(=O)[C@H](CCCCCN)NC(=O)CNC(=O)[C@H](Cc3ccccc3)NC(=O)[C@H]([C@@H](C)CC)NC(=O)[C@H](CO)NC(=O)CNC(=O)[C@H]([C@@H](C)CC)NC(=O)[C@H](C)NC(=O)[C@H](CCCCN)NC(=O)[C@H](CC(C)C)NC(=O)[C@@H]3CSSC[C@@H](C(=O)N[C@@H](Cc4ccc(O)cc4)C(=O)N4CCC[C@H]4C(=O)N[C@@H](CCCNC(=N)N)C(N)=O)NC(=O)[C@H](CCCCN)NC(=O)[C@H](CSSC[C@H](NC(=O)[C@H](CCC(=O)O)NC(=O)[C@H](C(C)C)NC(=O)[C@H](CO)NC(=O)[C@H](C)NC(=O)[C@H](CO)NC1=O)C(=O)N[C@@H](CCCCN)C(=O)N[C@@H](CCC(N)=O)C(=O)N[C@@H](CCCCN)C(=O)N3)NC(=O)[C@H](CCCCN)NC(=O)[C@H](CCCCN)NC(=O)[C@H](CC(N)=O)NC(=O)[C@H](CCSC)NC2=O [Compound 69] (H-S[Nle]D[Nle]RCSASVECKQKCLKAIGSIFG[hLys]CMNKKCKCYPR-NH2; disulfide 6-27, 12-32, 16-34) |  | 2.7 | 0.58 |
| CCCC[C@H](NC(=O)[C@H](CC(=O)O)NC(=O)[C@H](CCCC)NC(=O)[C@@H](N)CO)C(=O)N[C@@H](CCCNC(=N)N)C(=O)N[C@H]1CSSC[C@@H]2NC(=O)[C@H](CCCCN)NC(=O)CNC(=O)[C@H](Cc3ccccc3)NC(=O)[C@H]([C@@H](C)CC)NC(=O)[C@H](CO)NC(=O)CNC(=O)[C@H]([C@@H](C)CC)NC(=O)[C@H](C)NC(=O)[C@H](CCCCN)NC(=O)[C@H](CC(C)C)NC(=O)[C@@H]3CSSC[C@@H](C(=O)N[C@@H](Cc4ccc(O)cc4)C(=O)N4CCC[C@H]4C(=O)N[C@@H](CCCNC(=N)N)C(N)=O)NC(=O)[C@H](CCCCN)NC(=O)[C@H](CSSC[C@H](NC(=O)[C@H](CCC(=O)O)NC(=O)[C@H](C(C)C)NC(=O)[C@H](CO)NC(=O)[C@H](C)NC(=O)[C@H](CO)NC1=O)C(=O)N[C@@H](C(C)C)C(=O)N[C@@H](CCC(N)=O)C(=O)N[C@@H](CCCCN)C(=O)N3)NC(=O)[C@H](CCCCN)NC(=O)[C@H](CCCCN)NC(=O)[C@H](CC(N)=O)NC(=O)[C@H](CCSC)NC2=O [Compound 72] (H-S[Nle]D[Nle]RCSASVECVQKCLKAIGSIFGKCMNKKCKCYPR-NH2; disulfide 6-27, 12-32, 16-34) | ≤ 1 | 0.47 | 0.19 |
| CCCC[C@H](NC(=O)[C@H](CC(=O)O)NC(=O)[C@H](CCCC)NC(=O)[C@@H](N)CO)C(=O)N[C@@H](CCCNC(=N)N)C(=O)N[C@H]1CSSC[C@@H]2NC(=O)[C@H](CCCCN)NC(=O)CNC(=O)[C@H](Cc3ccccc3)NC(=O)[C@H]([C@@H](C)CC)NC(=O)[C@H](CO)NC(=O)CNC(=O)[C@H]([C@@H](C)CC)NC(=O)[C@H](C)NC(=O)[C@H](CCCCN)NC(=O)[C@H](CC(C)C)NC(=O)[C@@H]3CSSC[C@@H](C(=O)N[C@@H](Cc4ccc(O)cc4)C(=O)N4CCC[C@H]4C(=O)N[C@@H](CCCNC(=N)N)C(N)=O)NC(=O)[C@H](CCCCN)NC(=O)[C@H](CSSC[C@H](NC(=O)[C@H](CCC(=O)O)NC(=O)[C@H](C(C)C)NC(=O)[C@H](CO)NC(=O)[C@H](C)NC(=O)[C@H](CO)NC1=O)C(=O)N[C@@H](CCCCN)C(=O)N[C@@H](CCCC(=O)O)C(=O)N[C@@H](CCCCN)C(=O)N3)NC(=O)[C@H](CCCCN)NC(=O)[C@H](CCCCN)NC(=O)[C@H](CC(N)=O)NC(=O)[C@H](CCSC)NC2=O [Compound 73] (H-S[Nle]D[Nle]RCSASVECK[Aad]KCLKAIGSIFGKCMNKKCKCYPR-NH2; disulfide 6-27, 12-32, 16-34) | ≤ 1 | 0.52 | 0.11 |
